From patent publication US12194024B2, “Pharmaceutical composition of MDM2 inhibitor and use thereof for preventing and/or treating disease” (ASCENTAGE PHARMA (SUZHOU) CO., LTD., priority 2019, dated 2025)

Legend:
[1] = system: human MOLM-13 (AML) xenograft tumor; experiment: Systemic MOLM-13 AML mouse xenograft model; assay type: in vivo, NOD SCID mice; conditions: Compound 2 30 mg/kg q2d 21 days, Azacitidine 1.5 mg/kg qd seven days
Source text: The comparison among three or more groups uses one-way ANOVA. If the F value has a significant difference, multiple comparisons should be carried out after the ANOVA analysis. All data analysis uses SPSS 18.0. Prism (the sixth version) is used for graphing. Attune N×T flow cytometer (Thermo Fisher Scientific Inc.) is used for analyzing tumor infiltrating lymphocytes. Data acquisition and analysis use Analyst Software 1.6.3 work station (AB sciex, Ontario, Canada). For MOLM-13 systemic model, the death date of the last mouse is used for analyzing the median total survival and generating the Kaplan-Meier curve. Logarithmic rank test and Bonferroni multiple test are used for comparing the survival curves of different treatment groups.
For systemic AML model, six- to eight-week-old female NOD SCID mice are pretreated with cyclophosphamide (150 mg/kg, intraperitoneally) continuously for two days. Then the MOLM-13 systemic AML xenograft model is established by inoculating 1×10^7 cells into the caudal vein intravenously.
For systemic AML model, the six- to eight-week-old female NOD SCID mice are pretreated with cyclophosphamide (150 mg/kg, intraperitoneally) continuously for two days. Then the MOLM-13 systemic AML xenograft model is established by inoculating 1×10^7 cells into the caudal vein intravenously. Cells grow 3 days, then are randomly divided into groups for treatment of a single drug or drugs in combination using a carrier, compound 2 (50 mg/kg, is taken orally each day for 7 days), and Aza (1.5 mg/kg, intravenous injection each day for 7 days). In the treatment process and after the treatment is completed, the mice are monitored for the occurrence of hind leg paresis (HLP) or the abdominal swelling caused by disease progression, and a body weight loss >20%.
A systemic MOLM-13 mouse xenograft model is established, and the anti-leukemia effect of compound 2 following the administration regimen of 80 mg/kg dosage, orally (po), and once every two days (q2d) is evaluated in the model (corresponding to the number 57 regimen in table 7). The experiment has two groups, and 15 animals in each group, in one group, 5 animals are used for the analysis of the proportion of CD45+ AML cells, and the remaining 10 animals are used for recording the living condition of the mice. 18 days after the cell inoculation, according to the experimental regimen, 5 animals are selected randomly from each group, bone marrow and spleen are collected, the proportion of human CD45+ AML cells in bone marrow and spleen is analyzed using flow cytometry to evaluate the disease burden of animals.
Systemic tumor model is established by inoculating MOLM-13 tumor cells through caudal vein, the administration starts on the third day after the cell inoculation, and the day of the administration is defined as the first day. Compound 2 is administered following 30 mg/kg, q2d regimens for 21 days. Azacitidine is administered following 1.5 mg/kg, qd regimens for seven days (corresponding to the number 81 regimen in table 7). […]

[2] = system: human OCI-AML-3 AML xenograft tumor; experiment: Subcutaneous OCI-AML-3 AML mouse xenograft tumor model; assay type: in vivo, NOD SCID mice; conditions: Compound 2 50 mg/kg orally q2d, Azacitidine 2 mg/kg i.v., Decitabine 1 mg/kg i.v.; for Relative tumor volume (RTV, Mean ± SEM): d15, vehicle 16.5 ± 4.1
Description: For subcutaneous model, OCI-AML-3 cells (1×10^6) are injected subcutaneously into the right side of the abdomen of 6- to 8-week-old mice. About 10 days after the cell inoculation, the mice are randomly divided into groups based on the primary tumor size achieving about 100-150 mm^3 of average tumor volume.
The tumor diameter is measured twice using a vernier caliper each week. The computational formula of the tumor volume (TV) is: TV=a×b^2/2. In the computational formula, a and b represent the length and width of the tumor measurement respectively. The computational formula of the relative tumor volume (RTV) is: RTV=VtN1. In the computational formula, V1 is the tumor volume when being grouped and administered, and Vt is the tumor volume when being measured at a certain day after the administration.
The tumor remission rate (%) is derived by dividing the number of SD (Stable Disease), PR (Partial response) and CR (Complete response) appearing in the tumor bearing mice after treatment by the total number of mice in the group×100%.
The synergistic analysis uses the following formula (reference can be made to Gould S E et al., Translational value of mouse models in oncology drug development, Nature medicine, 2015 21, 431-439): synergistic factor=((A/C)×(B/C))/(AB/C); A=RTV value of the A drug alone group; B=RTV value of the B drug alone group; C=RTV value of the vehicle control group, AB=RTV value of the AB combined group (Clarke R., Issues in experimental design and endpoint analysis in the study of experimental cytotoxic agents in vivo in breast cancer and other models[J], Breast Cancer Research & Treatment, 1997, 46 (2-3):255-278).
For subcutaneous model, OCI-AML-3 cells (1×10^6) are injected subcutaneously into the right side of the abdomen of 6- to 8-week-old mice. About 10 days after the cell inoculation, the mice are randomly divided into groups based on the primary tumor size achieving about 100-150 mm^3 of average tumor volume. Compound 2 is administered alone or in combination (50 mg/kg, is taken orally, every other day for 15 days) and Aza (2 mg/kg, intravenous injection each day for 7 days) or Dec (1 mg/kg, intravenous injection each day for 7 days). The tumor volume is measured twice using a vernier caliper each week and is represented by following formula in mm^3: V=0.5a×b^2; in the formula, a and b are the long diameter and short diameter of the tumor respectively. […] RTV=VtN1; wherein V1 and Vt are the average tumor volume on the first day (day 1) in the treatment, and the average tumor volume of a certain time point (day t) respectively.
Azacitidine is administered following 2 mg/kg, caudal vein injection, qd×7d, drug withdrawal 7 days, then qd×2 day regimens for seven days (corresponding to the number 68 regimen in table 7).

MOLM-13 cells = experiment: Expression of proteins in treated MOLM-13 cells; assay type: cell-based, human; conditions: for γ-H2AX expression (DNA damage): MOLM-13 cells
Source text: Therefore, we evaluate the protein changes involving these identified signaling pathways. […] DEC and AZA are low methylation drugs inducing low DNA methylation in cells by inhibiting the function of methyltransferase I (DNMT1). Many studies indicate that DNMT1 forms a complex with UHRF1 and HDAC1 proteins in tumor cells, which binds and inhibits the expression of various […] (such as P16INK4A, P14ARF and P21) promoters, and promotes tumor growth. Cytarabine is a pyrimidine nucleoside analogue, which induces DNA damage, further activates ATM/ATR-P53-P21 signal cascades, inhibits DNA synthesis in cells and interferes with cell proliferation.
Based on above evidences, we further detect the regulating effect of treatment with compound 2 in combination with low methylation drugs DEC and AZA or drug Ara-C on P53, demethylation marker protein DNMT1 and common target protein P21, and the expression of apoptosis marker protein, lytic PARP-1. […] RG-7388 is introduced as the comparison of present experiment. […] DNA damage further activates P53 and P21.
B-actin is used for confirming that the loaded proteins are the same. […] Its results represent three independent results.

[3] = MOLM-13, DEC 100 nM, AZA 3 μM, 48 hours

| SMILES | Median survival ([1]; vehicle 16 days) [days] | Prolonged survival ([1]; versus vehicle) [days] | T/C value (%) (d15) [2] | Relative tumor volume (RTV, Mean ± SEM) [2] | expression of DNMT1 (MOLM-13 cells; [3]) | γ-H2AX expression (DNA damage) (MOLM-13 cells) | expression of P53 and P21 proteins (MOLM-13 cells; MOLM-13, compound 2 40 nM, RG-7388 40 nM, DEC 100 nM, AZA 3 μM, 48 hours) |
| --- | --- | --- | --- | --- | --- | --- | --- |
| Nc1ncn([C@@H]2O[C@H](CO)[C@@H](O)[C@H]2O)c(=O)n1 [Azacitidine] | 24 | 8 | 56.6 | 9.3 ± 3.2 | almost completely eliminates DNMT1 | increased expression of γ-H2AX | – |
| Nc1ccn([C@@H]2O[C@H](CO)[C@@H](O)[C@@H]2O)c(=O)n1 [Cytarabine] | – | – | – | – | – | increased expression of γ-H2AX | significant up-regulation effect on P21 |
| Nc1ncn([C@H]2C[C@H](O)[C@@H](CO)O2)c(=O)n1 [Decitabine] | – | – | 64.9 | 10.7 ± 1.7 | almost completely eliminates DNMT1 | increased expression of γ-H2AX | – |
